Data taken from patent publication US20230131376A1, “ADJUVANT-ANTIBIOTIC COMBINATION AGAINST GRAM-NEGATIVE BACTERIA” (University of Notre Dame du Lac, priority 2020, published 2023).
“Also recorded” adds a separate entry of the source.

Experiments:
F. novicida = conditions: tested at 50 μM; cited from earlier work
Francisella philomiragia = conditions: tested at 50 μM; cited from earlier work
E. coli YD626 (parent) = assay: Colistin potentiation, broth microdilution, E. coli YD626 parent; format: cell-based
Text: (§1) Broth microdilution method for antibiotic potentiation.

A. baumannii 4106 [1] = assay: Colistin potentiation, chromosomally colistin resistant A. baumannii 4106; format: cell-based
Text: as §1

[2] = system: mcr-1 plasmid containing E. coli, K. pneumoniae, and A. baumannii; assay: Colistin potentiation stated for all three mcr-1 strains together
red blood cells = assay: Hemolysis assay; format: cell-based, sheep
Method: Hemolysis assay. Hemolysis assays were performed on mechanically defibrinated sheep blood (Hemostat Labs: DSB30). Defibrinated blood (1.5 mL) was placed into a microcentrifuge tube and centrifuged for 10 min at 10,000 rpm. The supernatant was then removed, and the cells were resuspended in 1 mL of phosphate-buffered saline (PBS). The suspension was centrifuged, the supernatant was removed, and cells were resuspended two additional times. The final cell suspension was then diluted 10-fold. Test compound solutions were made in PBS in small culture tubes and then added to aliquots of the 10-fold suspension dilution of blood. PBS was used as a negative control and a zero hemolysis marker. Triton X (a 1% sample) was used as a positive control serving as the 100% lysis marker. Samples were then placed in an incubator at 37° C. while being shaken at 200 rpm for one hour. After one hour, the samples were transferred to microcentrifuge tubes and centrifuged for 10 min at 10,000 rpm. The resulting supernatant was diluted by a factor of 40 in distilled water. The absorbance of the supernatant was then measured with a UV spectrometer at a 540 nm wavelength.

[3] = system: A. baumannii 4106 infection in G. mellonella larvae; assay: Galleria mellonella model of A. baumannii infection; format: in vivo; conditions: 6×10^5 CFU A. baumannii 4106, day 4
Method: Galleria mellonella Assay. G. mellonella larvae (Speedy Worm, Alexandria, Minn.) were used within 10 days of shipment from the vendor. After reception of worms, larvae were kept in the dark at room temperature for at least 24 h. before infection. Larvae weighing between 200 to 300 mg were used in the survival assay. Using a 10 μL glass syringe (Hamilton, Reno, Nev.) fitted with a 30 G needle (Exel International, St. Petersburg, Fla.), a 5 μL solution of the desired compound(s) and concentration(s) were injected into the last left proleg. Colistin was dosed at 50 mg/kg dissolved in DI water, 2-AIs at 50 mg/kg dissolved in DMSO, tigecycline at 100 mg/kg dissolved in DMSO, and DMSO was injected for a negative control. For bacterial injections, 1 mL from an overnight culture of A. baumannii 4106 in Miller LB broth (Fisher Scientific U.S.) was subcultured into 9 mL Miller LB broth and incubated for an additional 3 h before use. The 10 mL solution was centrifuged and washed three times with phosphate buffer solution (PBS, Fisher Scientific U.S.) before diluting to 6×10^5 CFUs in PBS. Then, 2.5 h. after the first injection, a second 5 μL injection containing 6×10^5 CFUs of A. baumannii 4106 was injected into the second to last left proleg. Injected worms were left at room temperature in the dark while being assessed at 24 h intervals over 4 days. […] Experiment was repeated 3 times using 10 larvae per experimental group. No ethics approval was needed for G. mellonella.

A. baumannii 3941 = assay: Colistin potentiation, chromosomally colistin resistant A. baumannii 3941; format: cell-based
Text: as §1

K. pneumoniae B9 = assay: Colistin potentiation, chromosomally colistin resistant K. pneumoniae B9; format: cell-based
Text: as §1

[4] = system: A. baumannii 17978 +mcr-1; assay: Colistin potentiation with detergent (Tween 80); format: cell-based; conditions: adjuvant at 30 μM; 0.01% Tween 80
Text: Broth microdilution method for antibiotic potentiation with detergent.

4T1 cells = assay: MTT cell viability assay; format: cell-based, mouse
Method: MTT Cell Viability Assay. 4T1 cells (ATCC Manassas, Va.) were plated at a density of 1×10^4 cells/well in 96-well plates. (Roswell Park Memorial Institute Media 1640, Gibco, Gaithersburg, Md.) supplemented with 10% Fetal Bovine Serum (Gibco), 2 mM GlutaMAX (Gibco) and 50 μM 2-mercaptoethanol (Sigma Aldrich St. Louis, Mo.) and incubated at 37° C. under a 5% CO2 atmosphere in the dark for 18 h. Cell cultures were treated with serial dilutions of compounds in the presence or absence of 1 μg/mL colistin (3 replicates per condition) and incubated for an additional 18 hours. The following control conditions were used: media only (blank), 1% Triton X100 (0% cell viability), 0.5% DMSO (100% cell viability). Each condition was then treated with 10% volume of a 5 mg/mL solution of 3-(4,5-dimethylthiazol-2-yl)-2,5-diphenyltetrazolium bromide (MTT) (Sigma Aldrich) in sterile filtered 1× phosphate buffered saline (PBS) and incubated for 2 h. at 37° C. in 5% CO2, after which the media was aspirated and the resulting formazan crystals were resuspended in 100 μL acidified (4 mM HCl) isopropanol. The 96-well plate was then read at 540 nm on a FLUOstar Optima (BMG Labtech Cary, N.C.) microplate reader. Cell viability was calculated as a percentage using the two previously mentioned controls.

[5] = system: chromosomally colistin resistant K. pneumoniae and A. baumannii strains; assay: Colistin potentiation stated for the four chromosomally colistin resistant strains together; format: cell-based
Text: as §1

K. pneumoniae C3 = assay: Colistin potentiation, chromosomally colistin resistant K. pneumoniae C3; format: cell-based
Text: as §1

A. baumannii 4106 [6] = assay: In vitro MIC of tigecycline; format: cell-based; conditions: Acinetobacter baumannii
Method: Broth microdilution method for MIC determination. […] Aliquots (1 mL) were placed in culture tubes and compound was added from 10 mM stock samples in DMSO, such that compound concentration equaled highest concentration tested (200 μM). Samples were then aliquoted (200 μL) into the first wells of a 96-well plate, with all remaining wells being filled with 100 μL of initial bacterial subculture. Row one wells were mixed five times, before 100 μL was transferred to row two. […] This process was repeated until the final row had been mixed; this served to serially dilute the compound.

[7] = system: A. baumannii 17978 +mcr-1; assay: Colistin potentiation, broth microdilution, A. baumannii 17978 +mcr-1; conditions: no adjuvant
[8] = system: K. pneumoniae 2210291 (parent); assay: Colistin potentiation, broth microdilution, K. pneumoniae 2210291 parent; format: cell-based; conditions: no adjuvant
Text: as §1

[9] = system: A. baumannii 17978 (parent); assay: Colistin potentiation, broth microdilution, A. baumannii 17978 parent; format: cell-based; conditions: no adjuvant
Text: as §1

E. coli YD626 +mcr-1 = assay: Colistin potentiation, broth microdilution, E. coli YD626 +mcr-1; conditions: no adjuvant
[10] = system: K. pneumoniae 2210291 +mcr-1; assay: Colistin potentiation, broth microdilution, K. pneumoniae 2210291 +mcr-1; conditions: no adjuvant

CCCCc1ccc(C(=O)NCCc2c[nH]c3ccccc23)cc1 [Compound 1a]
fold reduction in the colistin MIC (F. novicida): two-fold
fold reduction in the colistin MIC (Francisella philomiragia): 32 fold
fold reduction of colistin MIC (E. coli YD626 (parent); adjuvant at 50 μM, parent E. coli strain): 16 fold

O=C(NCCc1c[nH]c2ccc(Br)cc12)Nc1cc(Cl)c(Br)c(Cl)c1 [Compound 9e, 1-(2-(5-bromo-1H-indol-3-yl)ethyl)-3-(4-bromo-3,5-dichlorophenyl)urea]
colistin MIC with adjuvant (A. baumannii 4106 [1]; adjuvant at 7.5 μM): 1 µg/mL
colistin MIC with adjuvant (A. baumannii 4106 [1]; adjuvant at 8 μM): 4 µg/mL
colistin MIC with adjuvant (A. baumannii 4106 [1]; adjuvant at 10 μM): 1 µg/mL
fold reduction of colistin MIC (A. baumannii 4106 [1]; adjuvant at 10 μM): > 2000 fold
colistin MIC with adjuvant (A. baumannii 4106 [1]; adjuvant at 15 μM): 0.5 µg/mL
colistin MIC with adjuvant (A. baumannii 4106 [1]; adjuvant at 20 μM): 0.5 µg/mL
resensitization to colistin, all three mcr-1 containing strains ([2]; adjuvant at 5 μM): resensitized all three mcr-1 containing bacterial strains to colistin
colistin MIC with adjuvant, all three mcr-1 strains ([2]; adjuvant at 15 μM, susceptibility breakpoint 2 μg/mL): lowered the colistin MIC to the susceptibility breakpoint
toxicity to red blood cells (red blood cells): generally non-toxic
survival of inoculated worms after 4 days, combination with colistin ([3]; 50 mg/kg compound paired with 50 mg/kg colistin): 47%
survival of inoculated worms after 4 days, monotherapy ([3]; 50 mg/kg): 0%
colistin MIC with adjuvant (A. baumannii 3941; adjuvant at 7.5 μM): 16 µg/mL
colistin MIC with adjuvant (A. baumannii 3941; adjuvant at 10 μM): 4 µg/mL
colistin MIC with adjuvant (A. baumannii 3941; adjuvant at 15 μM): 4 µg/mL
colistin MIC with adjuvant (A. baumannii 3941; adjuvant at 20 μM): 2 µg/mL
colistin MIC with adjuvant (K. pneumoniae B9; adjuvant at 5 μM, K. pneumoniae B9): 0.5 µg/mL
fold reduction of colistin MIC (K. pneumoniae B9; adjuvant at 5 μM, a chromosomally resistant K. pneumoniae strain (MIC 512 to 0.5 μg/mL)): 1024 fold
fold reduction of colistin MIC (K. pneumoniae B9; adjuvant at 10 μM, K. pneumoniae B9): > 2000 fold
colistin sensitization activity in absence and presence of Tween 80 [4]: equipotent colistin sensitization activity in the absence and presence of Tween 80
toxicity to the 4T1 cell line (4T1 cells): generally non-toxic
CT50, Compound + colistin (4T1 cells; 4T1 cells, 18 h, with 1 μg/mL colistin, concentration giving 50% cell viability): 64.9 µM
CT50, Compound alone (4T1 cells; 4T1 cells, 18 h, without colistin, concentration giving 50% cell viability): 94.1 µM
resensitization to breakpoint colistin levels, chromosomally resistant strains ([5]; adjuvant at 7.5 μM): resensitized three out of four chromosomally resistant strains; also recorded: resensitized three out of the four strains to breakpoint colistin levels
colistin MIC with adjuvant, all four chromosomally colistin resistant strains (CLSI breakpoint) ([5]; adjuvant at 20 μM): < 2 µg/mL
colistin MIC with adjuvant (K. pneumoniae C3; adjuvant at 7.5 μM): 2 µg/mL
colistin MIC with adjuvant (K. pneumoniae C3; adjuvant at 8 μM): 2 µg/mL
colistin MIC with adjuvant (K. pneumoniae C3; adjuvant at 10 μM): 1 µg/mL
colistin MIC with adjuvant (K. pneumoniae C3; adjuvant at 15 μM): 0.5 µg/mL
colistin MIC with adjuvant (K. pneumoniae C3; adjuvant at 20 μM): 0.5 µg/mL

CN(C)c1cc(NC(=O)CNC(C)(C)C)c(O)c2c1C[C@H]1C[C@H]3[C@H](N(C)C)C(O)=C(C(N)=O)C(=O)[C@@]3(O)C(O)=C1C2=O [tigecycline, reference compound]
survival of inoculated worms after 4 days, monotherapy ([3]; 100 mg/kg): 20%
MIC (A. baumannii 4106 [6]): 8 µg/mL

colistin [reference compound]
colistin MIC, colistin alone [7]: 16 µg/mL
colistin MIC, colistin alone (A. baumannii 4106 [1]; no adjuvant): 1024 µg/mL
survival of inoculated worms after 4 days, monotherapy ([3]; 50 mg/kg): 7%
colistin MIC, colistin alone (A. baumannii 3941; no adjuvant): 512 µg/mL
colistin MIC, colistin alone (K. pneumoniae B9; no adjuvant, K. pneumoniae B9): 512 µg/mL
colistin MIC, colistin alone [8]: 1 µg/mL
colistin MIC, colistin alone (E. coli YD626 (parent); no adjuvant, E. coli YD626 parent): 1 µg/mL
colistin MIC, colistin alone [9]: 2 µg/mL
colistin MIC, colistin alone (K. pneumoniae C3; no adjuvant): 512 µg/mL
colistin MIC, colistin alone (E. coli YD626 +mcr-1): 8 µg/mL
colistin MIC, colistin alone [10]: 16 µg/mL
